Experiments:
BV2 cells = assay: MTS metabolic activity (cytotoxicity); assay type: cell-based, murine; details: BV2, MTS assay, 24 h, concentrations of 5 μM or less
Experimental: The human hepatocellular carcinoma HepG2 and human neuroblastoma SH-SY5Y cell lines were purchased from American Type Culture Collection (Manassas, VA, USA). The murine microglia BV2 cells were a generous gift from Dr. Biljana Božić Nedeljković (University of Belgrade, Belgrade, Serbia). Cells were cultured in Advanced Dulbecco’s modified Eagle’s medium (Gibco, Thermo Fisher Scientific, Waltham, MA, USA) supplemented with 10% fetal bovine serum (FBS, Gibco), 2 mM L-glutamine, 50 U/mL penicillin and 50 μg/mL streptomycin (Sigma, St. Louis, MO, USA) in a humidified atmosphere of 95% air and 5% CO2 at 37 °C, and grown to 80% confluence. Prior to cell treatment, complete medium was replaced with serum-free medium. […]
BV2 cells (5 × 10^3/well) and HepG2 and SH-SY5Y cells (1 × 10^4/well) were seeded in 96-well plates and assessed by MTS ([3-(4,5-dimethylthiazol-2-yl)-5-(3-carboxymethoxyphenyl)-2-(4-sulfophenyl)-2H tetrazolium, inner salt) assay for their response to compounds 94 and 95. Cells were treated with increasing concentrations of compounds (1–100 μM) in serum-free medium, and metabolic activity was assessed after 24 h using the CellTiter 96 Aqueous One Solution Cell Proliferation Assay (Promega, Madison, WI, USA), in accordance with the manufacturer’s instructions. Absorbance was measured with an automatic microplate reader (Tecan Safire^2, Switzerland) at a wavelength of 492 nm. […]

Log D determination = assay type: physicochemical; details: pH 7.4, n-octanol/PBS
Experimental: Calibration curves for phosphate-buffered saline (PBS) (pH = 7.4) and octanol were prepared (0.05–5 μM). The buffer and n-octanol phases were shaken, using phosphate buffer (pH = 7.4). The phase ratios of buffer to n-octanol were 1:1 (0.8 mL octanol:0.8 mL PBS) and 1:3 (0.4 mL octanol:1.2 mL PBS). Octanol was then pipetted into a HPLC vial, followed by the addition of 1.6 μL of a 10 mM stock DMSO solution and the buffer. The vial was mixed with a vortex mixer and shaken for 3 h in the dark at 23 °C. Subsequently, the aqueous and organic phases were sampled with a syringe into a new HPLC vial, and the samples were analyzed using UHPLC/DAD.

human p38α MAPK = human p38α MAPK (Homo sapiens, UniProt Q16539); assay: biochemical
Sequence of human p38α MAPK (Q16539 whole entry): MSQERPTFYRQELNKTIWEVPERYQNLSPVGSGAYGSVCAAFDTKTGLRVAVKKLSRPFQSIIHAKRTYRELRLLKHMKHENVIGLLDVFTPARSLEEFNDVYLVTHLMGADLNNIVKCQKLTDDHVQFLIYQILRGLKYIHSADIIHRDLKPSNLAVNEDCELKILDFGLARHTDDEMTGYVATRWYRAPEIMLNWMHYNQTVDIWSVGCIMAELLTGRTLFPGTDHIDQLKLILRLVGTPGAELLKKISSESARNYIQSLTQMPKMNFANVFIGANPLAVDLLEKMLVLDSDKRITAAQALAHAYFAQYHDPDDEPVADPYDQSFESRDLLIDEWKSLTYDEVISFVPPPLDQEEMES
Experimental: The inhibitory activities against human p38α MAPK were evaluated using the commercially available ADP-Glo Kinase Assay (Promega, Inc., USA).
For the reference sample, 1% [v/v] DMSO replaced the inhibitor solution. […] The enzyme reaction was started with the addition of the enzyme solution. The DMSO concentration in the test solution was maintained at 1% [v/v]. The plate was incubated for 60 min. Then 5 μL of ADP-Glo reagent was added, followed by a 40 min incubation at room temperature. […] All incubations were performed at room temperature. The RA and IC50 values were calculated as described above (ChEs inhibitory potency).

[1] = p38α MAPK IC50, IC50 expressed as concentration in ng/mL
[2] = p38α MAPK IC50 ± SEM, two independent experiments, each in triplicate

In the case of `CN(C)CCNC(=O)c1cc2c(cnn2CC2CCCCC2)cc1Cc1ccc(F)cc1F` [Compound 95, 1-(Cyclohexylmethyl)-5-(2,4-difluorobenzyl)-N-(2-(dimethylamino)ethyl)-1H-indazole-6-carboxamide], the RA @ 1000nM (ACVR1B) is reported as 100%, the RA @ 10000nM (ACVR1B) is reported as 100% and the RA @ 1000nM (AKT1) is reported as 100%. For the same compound, the RA @ 10000nM (AKT1) was 100%, the RA @ 1000nM (ALK) was 62% and the RA @ 10000nM (ALK) was 92%. It also gave an RA @ 1000nM (AURKA) of 95%, an RA @ 10000nM (AURKA) of 93% and an RA @ 1000nM (CDK9) of 100%. The RA @ 10000nM (CDK9) was 93%, the RA @ 1000nM (CHEK1) was 100% and the RA @ 10000nM (CHEK1) was 100%. For the same compound, the RA @ 1000nM (CSNK1D) was 93%, the RA @ 10000nM (CSNK1D) was 84% and the RA @ 1000nM (ERBB4) was 93%. The RA @ 10000nM (ERBB4) was 81%, the RA @ 1000nM (FGFR2) was 100% and the RA @ 10000nM (FGFR2) was 100%. For the same compound, the RA @ 1000nM (IGF1R) was 100%, the RA @ 10000nM (IGF1R) was 93% and the RA @ 1000nM (JNK3) was 48%. The RA @ 10000nM (JNK3) was 3.7%, the RA @ 1000nM (KIT) was 100% and the RA @ 10000nM (KIT) was 100%. The RA @ 1000nM (LKB1) was 100%, the RA @ 10000nM (LKB1) was 86% and the RA @ 1000nM (MARK3) was 79%. The RA @ 10000nM (MARK3) was 86%, the RA @ 1000nM (MEK1) was 98% and the RA @ 10000nM (MEK1) was 100%. The RA @ 1000nM (MEK2) was 95%, the RA @ 10000nM (MEK2) was 100% and the RA @ 1000nM (MET) was 100%. It also gave an RA @ 10000nM (MET) of 100%, an RA @ 1000nM (p38γ) of 100% and an RA @ 10000nM (p38γ) of 99%. It also gave an RA @ 1000nM (p38δ) of 100%, an RA @ 10000nM (p38δ) of 100% and an RA @ 1000nM (PAK2) of 100%. For the same compound, the RA @ 10000nM (PAK2) was 95%, the RA @ 1000nM (PIK3C2B) was 91% and the RA @ 10000nM (PIK3C2B) was 91%. The RA @ 1000nM (PIM3) was 100%, the RA @ 10000nM (PIM3) was 100% and the RA @ 1000nM (PLK3) was 88%. It also gave an RA @ 10000nM (PLK3) of 100%, an RA @ 1000nM (RAF1) of 100% and an RA @ 10000nM (RAF1) of 100%. It also gave an RA @ 1000nM (TRKA) of 100%, an RA @ 10000nM (TRKA) of 92% and an RA @ 1000nM (ULK2) of 77%. The RA @ 10000nM (ULK2) was 75%, the cell viability (BV2 cells) was “did not affect cell viability” and the “measured log D at pH 7.4” value (Log D determination) was 2.77. The IC50 (human p38α MAPK; [1]) was 191 nM and the IC50 (human p38α MAPK; [2]) was 191 ± 21 nM.
With `CC(C)Cn1ncc2cc(Cc3ccc(F)cc3F)c(C(=O)NCCN(C)C)cc21` [Compound 94, 5-(2,4-Difluorobenzyl)-N-(2-(dimethylamino)ethyl)-1-isobutyl-1H-indazole-6-carboxamide] the RA @ 1000nM (ACVR1B) was 100%, the RA @ 10000nM (ACVR1B) was 100% and the RA @ 1000nM (AKT1) was 100%. It also gave an RA @ 10000nM (AKT1) of 75%, an RA @ 1000nM (ALK) of 93% and an RA @ 10000nM (ALK) of 83%. It also gave an RA @ 1000nM (AURKA) of 96%, an RA @ 10000nM (AURKA) of 93% and an RA @ 1000nM (CDK9) of 100%. The RA @ 10000nM (CDK9) was 100%, the RA @ 1000nM (CHEK1) was 100% and the RA @ 10000nM (CHEK1) was 100%. The RA @ 1000nM (CSNK1D) was 86%, the RA @ 10000nM (CSNK1D) was 79% and the RA @ 1000nM (ERBB4) was 85%. The RA @ 10000nM (ERBB4) was 83%, the RA @ 1000nM (FGFR2) was 95% and the RA @ 10000nM (FGFR2) was 100%. It also gave an RA @ 1000nM (IGF1R) of 94%, an RA @ 10000nM (IGF1R) of 84% and an RA @ 1000nM (JNK3) of 55%. For the same compound, the RA @ 10000nM (JNK3) was 6.8%, the RA @ 1000nM (KIT) was 100% and the RA @ 10000nM (KIT) was 100%. The RA @ 1000nM (LKB1) was 100%, the RA @ 10000nM (LKB1) was 96% and the RA @ 1000nM (MARK3) was 100%. It also gave an RA @ 10000nM (MARK3) of 100%, an RA @ 1000nM (MEK1) of 98% and an RA @ 10000nM (MEK1) of 74%. For the same compound, the RA @ 1000nM (MEK2) was 86%, the RA @ 10000nM (MEK2) was 80% and the RA @ 1000nM (MET) was 96%. The RA @ 10000nM (MET) was 100%, the RA @ 1000nM (p38γ) was 93% and the RA @ 10000nM (p38γ) was 94%. For the same compound, the RA @ 1000nM (p38δ) was 97%, the RA @ 10000nM (p38δ) was 100% and the RA @ 1000nM (PAK2) was 100%. It also gave an RA @ 10000nM (PAK2) of 97%, an RA @ 1000nM (PIK3C2B) of 90% and an RA @ 10000nM (PIK3C2B) of 82%. For the same compound, the RA @ 1000nM (PIM3) was 100%, the RA @ 10000nM (PIM3) was 100% and the RA @ 1000nM (PLK3) was 100%. The RA @ 10000nM (PLK3) was 97%, the RA @ 1000nM (RAF1) was 100% and the RA @ 10000nM (RAF1) was 100%. It also gave an RA @ 1000nM (TRKA) of 98%, an RA @ 10000nM (TRKA) of 94% and an RA @ 1000nM (ULK2) of 71%. For the same compound, the RA @ 10000nM (ULK2) was 88%, the cell viability (BV2 cells) was “did not affect cell viability” and the “measured log D at pH 7.4” value (Log D determination) was 2.13. For the same compound, the IC50 (human p38α MAPK; [1]) was 376 nM and the IC50 (human p38α MAPK; [2]) was 377 ± 123 nM.

Reference: PMC12406203 (Journal of Medicinal Chemistry, 2025)
